Data on three compounds can be found in patent US3976779A, “1,2,3,4-Tetrahydro-carbazole compounds and β-adrenergic compositions” (Boehringer Mannheim G.m.b.H., priority 1974, dated 1976).

The subject of one data set is cardiac β-receptor. The experiment in a line: Blocking of isoprenalin tachycardia in wake rabbits (β-receptor blocking activity). The conditions noted are these: for Therapeutic Index (LD50:DE250): LD50 mouse i.v. : DE250 wake rabbit i.v.; for DE250: wake rabbits, interpolated dosage which limits frequency increase to 250 beats/min, 15 min i.v. infusion, isoprenalin i.v. 30 min after infusion.

A further data set is described as follows: in vivo. The conditions noted are these: iv, mouse, i.v., dosage at which 50% of the mice die, read-out: Acute Toxicity LD50 Mouse.

Method for cardiac β-receptor: (§1) The following tests were carried out to determine the toxicity and the cardiac β-receptor blocking activity of certain test compounds by determining the inhibition of the heart beat frequency increase induced by intravenous administration of isoprenalin.
The β-receptor blocking activity of the test compounds was tested on wake rabbits weighing between 2 to 3.5 kg. and kept in wooden cages. EKG-electrodes were inserted into the hind quarters of the rabbits s.c. (II. lead) and the heart frequency was measured based on 20 heart beats. The test compounds were then infused through a small tube to the ear vein of the rabbits over a period of 15 minutes. 30 minutes after the infusion isoprenalin (3,4-dihydro-a-[(isopropylamino)-methyl]-benzylalcohol) was injected intravenously at 1 /ug/kg.
Method for in vivo: as §1

In general, LD50 refers to the dose at which mortality reaches 50%. Take `CC(C)NCC(O)COc1cccc2[nH]c3c(c12)CCCC3` (stereo not shown) [Compound I, 1,2,3,4-Tetrahydro-5-(2-hydroxy-3-isopropylamino-propoxy)-carbazole]: in the data set on cardiac β-receptor, the “Therapeutic Index (LD50:DE250)” value is reported as ~ 200 and the DE250 came out at 0.040 mg/kg i.v. Further, the 50% lethal dose (LD50) in “in vivo” is around 8 mg/kg.
In the case of `CC(C)NCC(O)COc1cccc2ccccc12` (stereo not shown) [Compound A, 1-Isopropylamino-3-(1-napthoxy)-2-propanol, reference compound], in the data set on cardiac β-receptor, the DE250 was 0.400 mg/kg i.v.
As for `CC(C)(C)NCC(O)COc1cccc2[nH]c3c(c12)CCCC3` (stereo not shown) [Compound II, 1,2,3,4-Tetrahydro-5-(2-hydroxy-3-tert. butylaminopropoxy)-carbazole], in the data set with cardiac β-receptor, the “Therapeutic Index (LD50:DE250)” value was found to be 875 and the DE250 amounted to 0.008 mg/kg i.v. The LD50 in the data set “in vivo” came to 7 mg/kg.
